# Test results as given in ChEMBL document CHEMBL3217678 (Medchemcomm, 2011).
# pIC50: −log10 of the molar value. The source made the active and inactive calls. The rule behind the calls is not given here.
# How the values were obtained:
# [1] = Selectivity for Mycobacterium tuberculosis 20S proteasome open-gate mutant over human 20S proteasome
# [2] = tested on: Mycobacterium tuberculosis; assay: Inhibition of Mycobacterium tuberculosis 20S proteasome open-gate mutant using Suc-LLVY-AMC as substrate at 1 mM preincubated for 30 mins followed by substrate addition measured after 90 mins by fluorescence assay
# [3] = tested on: Mycobacterium tuberculosis; assay: Inhibition of Mycobacterium tuberculosis 20S proteasome open-gate mutant chymotrypsin like activity using Suc-LLVY-AMC as substrate assessed as decrease in enzyme velocity up to 100 uM
# [4] = Inhibition of Mycobacterium tuberculosis 20S proteasome open-gate mutant using Suc-LLVY-AMC as substrate preincubated for 30 mins followed by substrate addition measured after 90 mins by fluorescence assay
Structure (SMILES),Selectivity ratio [1],inhibition [2],inhibition [3],pIC50 [4]
COc1cccc(-c2nsc(=O)o2)c1,> 1000,,,
CC(C)C[C@H](NC(=O)[C@H](Cc1ccccc1)NC(=O)c1cnccn1)c1nsc(=O)o1,,inactive,inactive,
CC(C)C[C@H](NC(=O)[C@H](Cc1ccccc1)NC(=O)c1cnccn1)B(O)O [BORTEZOMIB],,,,7.60
CC(C)C[C@@H](NC(=O)[C@H](Cc1ccccc1)NC(=O)c1cnccn1)c1nsc(=O)o1,,inactive,inactive,
